This experiment deals with T1, A/M2 protein (IonGate S31) (Influenza A virus, UniProt P0DOF5).
T1 construct: expressed in transfected cells; host or cells: CHO cell membranes
Nature of the experiment: Cell-free electrophysiology of M2 proton channels on solid supported membranes (SSM, IonGate SURFE2R). The class given is biochemical. The following applies: 25 μM compound, activation by pH jump 7.0 to 6.0, % inhibition=100×(1−I/Io); for inhibition at 25 µM: read-out: IonGate S31 (% Inhibition Range at 25 μM); for IonGate S31 (% Inhibition Range at 25 μM): hydrochloride.

A word on the inhibition: it is the relative decrease from the control value, in per cent.

Where a name gives a salt, the structure may show the parent alone.

T1 sequence (P0DOF5 whole entry): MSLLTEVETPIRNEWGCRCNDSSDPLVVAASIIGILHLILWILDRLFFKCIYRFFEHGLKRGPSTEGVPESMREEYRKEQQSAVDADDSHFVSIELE

As for `NC12CC3CC(CC(C1)C(O)C3)C2` (stereo not drawn) [Example 1, exo-1-aminotricyclo[4.3.1.1^3,8]undecan-4-ol hydrochloride], the inhibition at 25 µM is 11 to 50%.
Take `NC12CC3CC(CC(C1)C(F)C3)C2` (stereo not drawn) [Example 3, endo-4-fluorotricyclo[4.3.1.1^3,8]undecan-1-amine hydrochloride]: the inhibition at 25 µM fell in the range of 51 to 95%.
For the molecule `NC12CC3CC(CC(C1)C(I)C3)C2` (centres unmarked) [Example 5, 4-iodotricyclo[4.3.1.1^3,8]undecan-1-amine hydrochloride], the inhibition at 25 µM was in the range of 11 to 50%.
For the molecule `N#CC1CC2CC3CC1CC(N)(C2)C3` (stereo not drawn) [Example 8, exo-1-aminotricyclo[4.3.1.1^3,8]undecane-4-carbonitrile hydrochloride], the inhibition at 25 µM was 51 to 95%.
Turning to `NC12CC3CC(CC(C(F)F)C(C3)C1)C2` (stereo not drawn) [Example 10, exo-4-(difluoromethyl)tricyclo[4.3.1.1^3,8]undecan-1-amine hydrochloride], the “IonGate S31 (% Inhibition Range at 25 μM)” value is listed as “B (11-50% (B))”.
On to `NC12CC3CC(CC(C(F)F)C(C3)C1)C2` (stereo not drawn) [Example 11, endo-4-(difluoromethyl)tricyclo[4.3.1.1^3,8]undecan-1-amine hydrochloride], for which the “IonGate S31 (% Inhibition Range at 25 μM)” value was “A (51-95% (A))”.
As for `NC12CC3CC(=NO)C(CC(C3)C1)C2` (centres unmarked) [Example 12, 1-aminotricyclo[4.3.1.1^3,8]undecan-4-one oxime hydrochloride], the inhibition at 25 µM fell in the range of 1 to 10%.
Take `NC12CC3CC(C1)OC(=O)C(C3)C2` (centres unmarked) [Example 13, 1-amino-4-oxatricyclo[4.3.1.1^3,8]undecan-5-one hydrochloride]: the inhibition at 25 µM fell in the range of 1 to 10%.
Turning to `NC12CC3CC(C1)NC(=O)C(C3)C2` (centres unmarked) [Example 14, 1-amino-4-azatricyclo[4.3.1.1^3,8]undecan-5-one hydrochloride], the inhibition at 25 µM is 1 to 10%.
Same read-out and setting: the figure for `NC12CC3CNC(CC(C3)C1)C2` (centres unmarked) [Example 15, 4-azatricyclo[4.3.1.1^3,8]undecan-1-amine dihydrochloride] is 11 to 50%.
Take `NC12CC3COC(CC(C3)C1)C2` (centres unmarked) [Example 16, 4-oxatricyclo[4.3.1.1^3,8]undecan-1-amine hydrochloride]: the inhibition at 25 µM fell in the range of 11 to 50%.

(Values after patent US8691808B2, “Antiviral compounds and their methods of use” (Influmedix, Inc., priority 2011, dated 2014).)
